Measurements from ChEMBL document CHEMBL1201862, “PubChem BioAssay data set” (2004).
The source made the active and inactive calls.

Tests used:
Beta-lactamase [1] = biological target: T1, Beta-lactamase (Pseudomonas aeruginosa, UniProt Q79MP6); assay: inhibition of IMP-1 beta-lactamase activity – biochemical, epi-absorbance, selectivity assay for VIM-2 inhibitor project, dose response (AID 1920)
Beta-lactamase [2] = biological target: Beta-lactamase (Salmonella choleraesuis (strain SC-B67), UniProt Q5J463); assay: Epi-absorbance-based counterscreen for selective VIM-2 inhibitors: dose response biochemical high throughput screening assay to identify inhibitors of TEM-1 serine-beta-lactamase.
Beta-lactamase [3] = biological target: T1, Beta-lactamase; assay: […] counterscreen for selective VIM-2 inhibitors: dose response biochemical high throughput screening assay to identify inhibitors of IMP-1 metallo-beta-lactamase.
[4] = biological target: Disintegrin and metalloproteinase domain-containing protein 17 (Homo sapiens, UniProt P78536); assay: exosite inhibitors of ADAM17, dose response, biochemical (AID 743260)
[5] = inhibition of ADAM10 peptide cleavage – biochemical, FRET peptide substrate, recombinant human ADAM10, selectivity assay for ADAM17 exosite inhibitor project, dose response (AID 743259);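 also: ADAM10 enzyme cleaving a FRET peptide substrate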
[6] = biological target: T2, Trace amine-associated receptor 1 (Homo sapiens, UniProt Q96RJ0); assay: Fluorescence-based cell-based high throughput dose response assay to identify antagonists of the human trace amine associated receptor 1 (TAAR1).; type: functional
T2 sequence (Q96RJ0 whole entry): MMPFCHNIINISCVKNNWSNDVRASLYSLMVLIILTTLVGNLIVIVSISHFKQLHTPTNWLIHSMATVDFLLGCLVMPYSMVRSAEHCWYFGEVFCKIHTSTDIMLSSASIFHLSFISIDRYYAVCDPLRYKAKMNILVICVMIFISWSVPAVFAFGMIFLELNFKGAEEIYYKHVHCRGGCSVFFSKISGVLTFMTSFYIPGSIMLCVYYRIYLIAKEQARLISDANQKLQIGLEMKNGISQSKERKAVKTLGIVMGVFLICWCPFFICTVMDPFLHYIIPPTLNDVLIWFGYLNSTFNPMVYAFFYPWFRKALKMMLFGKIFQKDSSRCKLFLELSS

[7] = biological target: T2, Trace amine-associated receptor 1; assay: Counterscreen for antagonists of the human trace amine associated receptor 1 (hTAAR1): Fluorescence-based cell-based high throughput dose response assay to identify TAAR1 Agonists.; type: functional
[8] = Counterscreen for antagonists of the human trace amine associated receptor 1 (hTAAR1): Fluorescence-based cell-based high throughput dose response assay to identify nonselective Ga16 antagonists.; type: functional
[9] = Counterscreen for […] of the human trace amine associated receptor 1 (TAAR1): Fluorescence-based cell-based high throughput dose response assay to identify nonselective Ga16 agonists.; type: functional
[10] = biological target: Matrix metalloproteinase-14 (Homo sapiens, UniProt P50281); assay: Dose Response confirmation of uHTS hits for a small molecule inhibitors of MT1-MMP activation in a fluorescence assay set 1.; type: functional
[11] = biological target: SWI/SNF-related matrix-associated actin-dependent regulator of chromatin subfamily A member 2 (Homo sapiens, UniProt P51531); assay: Luminescence-based cell-based high throughput dose response assay to identify activators of the function of SWI/SNF related, matrix associated, actin dependent regulator of chromatin, subfamily a, member 2 (SMARCA2, BRM).; type: functional
[12] = Counterscreen for activators of the function of SWI/SNF related, matrix associated, actin dependent regulator of chromatin, subfamily a, member 2 (SMARCA2, BRM): Luminescence-based cell-based high throughput dose response assay to identify non-selective compounds using the VP16 reporter assay.; type: functional
[13] = biological target: T3, Rac GTPase-activating protein 1 (Homo sapiens, UniProt Q9H0H5); assay: blockers of MgcRacGAP-driven Rac1 GTP hydrolysis – biochemical, ADP Hunter fluorescence, primary and confirmatory, confirmation (AID 624330); type: functional
T3 sequence (Q9H0H5 whole entry): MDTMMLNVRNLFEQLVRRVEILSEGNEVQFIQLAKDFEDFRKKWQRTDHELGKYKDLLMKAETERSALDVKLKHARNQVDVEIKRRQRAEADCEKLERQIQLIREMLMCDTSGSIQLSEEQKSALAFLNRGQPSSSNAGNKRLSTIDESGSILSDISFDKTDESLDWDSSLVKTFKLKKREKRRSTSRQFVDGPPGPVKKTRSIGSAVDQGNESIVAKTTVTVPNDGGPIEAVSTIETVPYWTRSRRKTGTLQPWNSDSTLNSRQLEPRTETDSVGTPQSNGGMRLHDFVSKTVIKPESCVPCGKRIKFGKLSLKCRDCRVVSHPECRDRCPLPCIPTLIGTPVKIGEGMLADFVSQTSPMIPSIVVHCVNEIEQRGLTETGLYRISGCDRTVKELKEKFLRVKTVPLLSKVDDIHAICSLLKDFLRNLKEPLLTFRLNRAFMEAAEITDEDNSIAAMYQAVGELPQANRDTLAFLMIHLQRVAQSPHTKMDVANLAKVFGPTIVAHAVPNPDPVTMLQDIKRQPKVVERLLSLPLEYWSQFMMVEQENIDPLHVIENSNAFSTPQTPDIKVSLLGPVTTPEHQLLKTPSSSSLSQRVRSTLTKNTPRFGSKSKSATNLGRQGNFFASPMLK

[14] = viability loss in HeLa cells – cytotoxicity control for MgcRacGAP inhibitor project, dose response (AID 624300); type: functional

T1 sequence (Q79MP6 whole entry): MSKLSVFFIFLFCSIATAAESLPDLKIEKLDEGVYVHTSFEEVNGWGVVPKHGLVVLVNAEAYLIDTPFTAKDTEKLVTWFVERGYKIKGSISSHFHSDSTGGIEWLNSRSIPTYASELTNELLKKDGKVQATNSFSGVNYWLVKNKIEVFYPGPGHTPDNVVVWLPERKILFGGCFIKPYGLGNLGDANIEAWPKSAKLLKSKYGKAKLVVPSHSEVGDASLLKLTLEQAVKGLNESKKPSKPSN
Chain of Beta-lactamase (Salmonella choleraesuis (strain SC-B67), UniProt Q5J463) (Q5J463 whole entry): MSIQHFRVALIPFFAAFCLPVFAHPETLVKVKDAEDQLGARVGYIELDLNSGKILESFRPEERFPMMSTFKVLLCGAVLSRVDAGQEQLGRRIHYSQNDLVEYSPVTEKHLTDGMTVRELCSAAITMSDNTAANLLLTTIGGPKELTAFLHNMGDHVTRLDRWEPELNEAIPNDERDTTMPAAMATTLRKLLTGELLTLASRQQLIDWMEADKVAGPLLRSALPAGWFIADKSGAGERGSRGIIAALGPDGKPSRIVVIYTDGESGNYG
Chain of Disintegrin and metalloproteinase domain-containing protein 17 (P78536 whole entry, the tested form may be a part): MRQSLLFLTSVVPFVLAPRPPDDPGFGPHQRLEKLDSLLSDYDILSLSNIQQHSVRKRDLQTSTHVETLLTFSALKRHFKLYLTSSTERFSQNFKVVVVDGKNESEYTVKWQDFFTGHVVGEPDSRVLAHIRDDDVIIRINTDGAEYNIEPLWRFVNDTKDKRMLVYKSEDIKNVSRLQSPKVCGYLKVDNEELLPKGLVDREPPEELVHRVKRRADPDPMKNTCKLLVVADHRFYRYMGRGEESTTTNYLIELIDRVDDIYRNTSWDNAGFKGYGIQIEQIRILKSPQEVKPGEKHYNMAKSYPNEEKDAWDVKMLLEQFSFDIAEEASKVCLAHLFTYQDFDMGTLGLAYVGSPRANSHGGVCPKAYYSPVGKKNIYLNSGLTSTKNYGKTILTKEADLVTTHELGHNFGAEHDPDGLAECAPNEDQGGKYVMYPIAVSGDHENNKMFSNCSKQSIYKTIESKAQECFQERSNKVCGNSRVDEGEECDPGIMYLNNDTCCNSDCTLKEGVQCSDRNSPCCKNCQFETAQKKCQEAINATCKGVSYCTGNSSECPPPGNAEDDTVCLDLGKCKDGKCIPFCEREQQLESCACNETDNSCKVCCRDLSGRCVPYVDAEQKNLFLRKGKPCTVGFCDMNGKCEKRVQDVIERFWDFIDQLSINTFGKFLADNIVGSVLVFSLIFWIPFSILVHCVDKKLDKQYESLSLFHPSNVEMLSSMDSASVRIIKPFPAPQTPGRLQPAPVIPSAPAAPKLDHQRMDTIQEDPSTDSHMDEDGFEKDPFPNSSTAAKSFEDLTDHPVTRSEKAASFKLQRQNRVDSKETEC
Chain of SWI/SNF-related matrix-associated actin-dependent regulator of chromatin subfamily A member 2 (P51531 whole entry): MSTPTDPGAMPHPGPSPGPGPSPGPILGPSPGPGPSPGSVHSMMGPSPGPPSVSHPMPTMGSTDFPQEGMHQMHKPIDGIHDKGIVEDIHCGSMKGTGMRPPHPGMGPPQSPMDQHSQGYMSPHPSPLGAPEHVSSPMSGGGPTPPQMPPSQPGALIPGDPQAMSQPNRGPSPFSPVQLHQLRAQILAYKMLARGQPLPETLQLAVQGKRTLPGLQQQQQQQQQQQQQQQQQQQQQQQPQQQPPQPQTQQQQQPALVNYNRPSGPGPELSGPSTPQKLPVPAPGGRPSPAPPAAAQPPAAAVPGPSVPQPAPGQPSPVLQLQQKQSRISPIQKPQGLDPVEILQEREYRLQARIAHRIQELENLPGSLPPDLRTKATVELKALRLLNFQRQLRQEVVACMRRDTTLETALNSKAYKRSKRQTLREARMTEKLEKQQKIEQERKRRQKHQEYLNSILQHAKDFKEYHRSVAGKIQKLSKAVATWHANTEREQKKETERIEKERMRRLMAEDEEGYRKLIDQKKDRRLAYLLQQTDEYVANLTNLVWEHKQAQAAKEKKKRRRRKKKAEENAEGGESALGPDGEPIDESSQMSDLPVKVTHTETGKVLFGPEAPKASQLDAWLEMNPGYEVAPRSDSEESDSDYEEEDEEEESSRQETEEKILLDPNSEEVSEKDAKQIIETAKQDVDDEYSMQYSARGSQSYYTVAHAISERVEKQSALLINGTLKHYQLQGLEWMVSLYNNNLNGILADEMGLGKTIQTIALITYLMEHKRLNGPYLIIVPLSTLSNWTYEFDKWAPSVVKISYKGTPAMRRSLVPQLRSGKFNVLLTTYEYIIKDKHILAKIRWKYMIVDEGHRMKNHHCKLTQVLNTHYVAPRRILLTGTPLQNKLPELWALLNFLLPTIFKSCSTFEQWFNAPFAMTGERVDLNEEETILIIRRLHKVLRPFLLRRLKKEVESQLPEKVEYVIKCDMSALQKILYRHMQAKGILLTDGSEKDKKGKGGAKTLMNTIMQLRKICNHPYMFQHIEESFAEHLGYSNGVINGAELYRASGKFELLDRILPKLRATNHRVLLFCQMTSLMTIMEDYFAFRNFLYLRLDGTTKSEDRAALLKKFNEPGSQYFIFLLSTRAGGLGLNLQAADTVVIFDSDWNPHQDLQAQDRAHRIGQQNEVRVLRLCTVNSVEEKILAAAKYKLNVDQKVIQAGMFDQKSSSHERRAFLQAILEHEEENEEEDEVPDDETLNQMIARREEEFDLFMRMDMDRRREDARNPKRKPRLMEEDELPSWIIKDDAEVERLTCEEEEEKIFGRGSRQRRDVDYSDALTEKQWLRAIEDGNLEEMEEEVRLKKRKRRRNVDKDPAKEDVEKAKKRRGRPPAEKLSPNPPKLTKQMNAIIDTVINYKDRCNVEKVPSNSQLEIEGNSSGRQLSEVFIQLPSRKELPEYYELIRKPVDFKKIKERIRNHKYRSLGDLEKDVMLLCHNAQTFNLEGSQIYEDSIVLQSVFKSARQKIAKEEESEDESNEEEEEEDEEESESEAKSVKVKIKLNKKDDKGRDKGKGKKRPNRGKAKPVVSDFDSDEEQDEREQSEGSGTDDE

For `COCC(C)NC(=O)c1cc2cccc([N+](=O)[O-])c2[nH]1` (centres undefined), the IC50 (Beta-lactamase [1]) was > 59.6 µM (inactive), the IC50 (Beta-lactamase [2]) was > 59.6 µM (inactive) and the IC50 (Beta-lactamase [3]) was > 59.6 µM (inactive).

In the case of `CCSc1nsc(NC(=O)Nc2cccc(OC)c2)n1`, the IC50 [4] is reported as > 69.5 µM (inactive) and the IC50 [5] is reported as > 69.5 µM (inactive).

With `CN1CCN(c2ncnc3c2c(-c2ccccc2)cn3-c2ccc(F)cc2)CC1` the IC50 [6] was 3.17 µM (active), the EC50 [7] was 10 µM (inactive) and the IC50 [8] was > 29.9 µM (inactive). The EC50 [9] was > 29.9 µM (inactive).

With `Cc1cccc[n+]1CC(=O)/C=C1\N(C)c2ccccc2C1(C)C` the IC50 [10] was 24.1 µM (inactive).

In the case of `COc1ccc(-c2nnc(-c3ccc(N(C)C)cc3)o2)cc1`, the EC50 [11] is reported as > 91.2 µM (inactive) and the EC50 [12] is reported as > 91.2 µM (inactive).

With `Nc1nc(S)c2[nH]c(S)nc2n1` the IC50 [13] was 112 µM (active) and the CC50 [14] was 100 µM (active).
